In series [1] the test system is B. cenocepacia. The note with it: J. Antimicrob. Chemother., 2002, 50, 265-269; cited from earlier work.
Series [2] relates to P. aeruginosa. The note with it: J. Antimicrob. Chemother., 1999, 43, 345-349; cited from earlier work.
Series [3] relates to multidrug-resistant bacteria P. aeruginosa. As to the kind of experiment: Inhibition of P. aeruginosa growth in solution culture. Format: cell-based, Pseudomonas aeruginosa. The note with it: overnight at 37° C., shaking 250 rpm; AgNO3 180 μM. How it is done:
Other than DNA-based surface chemistry, the size-dependent controlled-release of Ag^+ from the DNA-templated AgNCs (sub-2nm) were also compared with the citrate-capped silver nanoparticles (AgNPs, 15 nm) and AgNO3 (free flow of Ag^+) against bacterial growth under the same experimental conditions. AgNPs were synthesized based on the Turkevich method whereby an aqueous solution of trisodium citrate was brought to boil, followed by addition of AgNO3 aq solution (310 μM). The reaction was then boiled till a yellow solution was obtained. For the AgNO3, 180 μM of AgNO3 was used for this example.

Series [4] concerns human A549 cells. As to the kind of experiment: WST-1 cytotoxicity assay. The format is cell-based. The following applies: compared at 44 μM, 4 hours at 37° C. Here is the method: The cytotoxicity of the silver-containing species were tested against human A549 cells (from the lungs) using the WST-1 Assay (manufactured by Roche). The silver-bearing species were diluted to different extents and allowed to incubate with the human cells at 37° C. for 4 hours. In the presence of dead cells, the enzymatic assay gave a pink coloured solution (as shown by the box in FIG. 4A), while the living cells gave a brown solution (cells that are outside the box region in FIG. 4A).
The percentage of human dead cells can be quantified spectroscopically by measuring the optical density of the solution at a wavelength of 440 nm. To examine the antimicrobial potency and cytotoxicity of silver in different formulations (AgNPs, DNA-templated AgNCs and AgNO3), the percentage of bacteria cells inhibited (y-axis representing the antibacterial potency) was plotted against the percentage of human A549 cells killed (x-axis representing the eukaryotic cytotoxicity) in FIG. 4B. Here, the relative percentages of human A549 cells killed were compared at a concentration of 44 μM for all silver-containing species.
Background: Formazan colour is commonly taken as a measure of viable cells.

This is an account of results in US20150110845A1, “ANTIMICROBIAL POLYNUCLEOTIDE-TEMPLATED METAL NANOCLUSTER” (priority 2013, published 2015).

≈ marks a conversion by molar mass, not a printed value.

Consider `O=C(O)c1cn(C2CC2)c2cc(N3CCNCC3)c(F)cc2c1=O` [ciprofloxacin], for which the MIC50 in series [1] is 0.36 µM (≈ 0.119 µg/mL); in series [2], 0.27 µM (≈ 0.0895 µg/mL).

For `O=[N+]([O-])[O-].[Ag+]` [AgNO3], the “P. aeruginosa growth inhibited” value in series [3] was “up to 97%”. In addition, the “cytotoxicity to human A549 cells” value in series [4] is “high toxicity”.

One may read the MIC50 as an inhibitory concentration at the 50% level, which refers to growth in some studies and to a panel of isolates in others.
